Assay results from BindingDB's records for patent US9771375 (Janssen Pharmaceutica NV, 2017).

Target: T1, Ketohexokinase (Human, UniProt P50053)
T1 sequence (P50053 whole entry): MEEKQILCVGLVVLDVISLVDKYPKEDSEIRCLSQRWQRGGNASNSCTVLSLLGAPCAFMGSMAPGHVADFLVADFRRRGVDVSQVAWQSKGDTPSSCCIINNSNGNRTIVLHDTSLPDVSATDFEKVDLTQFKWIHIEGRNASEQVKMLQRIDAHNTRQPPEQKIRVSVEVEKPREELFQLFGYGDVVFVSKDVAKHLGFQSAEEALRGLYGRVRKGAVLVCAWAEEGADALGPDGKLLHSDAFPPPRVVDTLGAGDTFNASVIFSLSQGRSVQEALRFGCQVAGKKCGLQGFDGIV
Assay: Enzyme Assay
Protocol: An enzymatic assay was developed to measure KHK-mediated conversion of D-fructose to Fructose-1-P (F-1-P) using High Throughput Mass Spectroscopy (HTMS) as a means of product detection. […] The assay was carried out in 384-well plate format.

IC50 [µM] | Structure (SMILES)
0.39 | COc1nn(-c2ccccc2)c2cc(N3CN(C4CCNCC4)C3)ccc12 [US9771375, Example 73]
2.71 | CCc1nn(-c2ccccc2)c2nc(-c3ccc(N4CCNCC4)cc3)nc(O)c12 [US9771375, Example 97]
